According to patent US20250186409A1, “5-AMINOHEXAHYDRO-6,7,8-TRIHYDROXY-3H-OXAZOLO[3,4-A]PYRIDIN-3-ONE DERIVATIVES DERIVATIVES AS TLR4 MODULATORS FOR THE TREATMENT OF IMMUNE DISEASES” (CONSEJO SUPERIOR DE INVESTIGACIONES CIENTÍFICAS (CSIC), priority 2021, published 2025):
Entries after “also recorded” stand apart in the source; their conditions may differ.

Columns and labels:
[1] = test system: glycosidases (human fibroblast lysates); assay: Stability of the glycosidic linkage to glycosidases on incubation with human fibroblast lysates; type: in vitro ADME; settings: 4 h, 37° C., pH 4.5, compound solution 200 μM, gas chromatography
Procedure: The stability of the glyosidic linkage in compounds 2, 4, 6, 8, 10, 12, 14, 16, 18, 20, 22, 25, 27, 29, 32 and 34 selected as representative examples, upon incubation with human fibroblast lysates for 4 h was checked. For such purpose, cells were scraped into ice-cold H2O (10^6 cells mL^−1) and lysed by sonication. Insoluble materials were removed by centrifugation at 15,000 rpm for 5 min and protein concentrations were determined with Protein Assay Rapid Kit (WAKO, Tokyo, Japan). 10 μL of the lysates in 0.1% Triton X-100 in distilled water were incubated at 37° C. with 20 μL of the compound solution (200 μM) in 0.1 M citrate buffer, pH 4.5. In control experiments, the activity of several lysosomas glycosidases was confirmed using fluorescent substrates. The substrates were 4-methylumbelliferone (4-MU)-conjugated β-D-glucopyranoside (for GCase), α-D-glucopyranoside (for α-glucosidase), α-D-galactopyranoside (for α-Galase) and β-D-galactopyranoside (for β-galactosidase). The liberated 4-methylumbelliferone was measured in the black-well plate with a Perkin Elmer Luminescence Spectrometer (excitation wavelength: 340 nm; emission: 460 nm). No traces of the free polysubstituted 2-oxa-3-oxoindolizidine, which would result from hydrolysis of the glycolipid mimetics, was detected by gas chromatography upon trimethylsilylation, confirming the stability of the compounds to the action of the glycosidases.

[2] = test system: bone marrow-derived macrophages (BMDM); assay: Suppression of LPS-induced inflammation (BMDM in vitro); type: cell-based; settings: FIG. 2; for suppression of IL-6 / suppression of TNFα: LPS-induced, BMDM; for suppression of IL-6: 50 μM; for suppression of TNFα: 10 and 50 μM
Source text: Since macrophage is the major responder to LPS-induced inflammation, we assessed the capability of selected compounds to suppress LPS-induced inflammation in bone marrow-derived macrophages (BMDM).

[3] = test system: Splenocytes; assay: Suppression of LPS-induced inflammation (splenocytes in vitro); type: cell-based, mouse; settings: splenocytes treated concurrently with compound and LPS, FIG. 1
Procedure: FIG. 1. […] Splenocytes were treated concurrently with the compounds of the invention and LPS to assess the suppressive function of compounds on LPS-induced inflammation, with several compounds showing prominent suppressive function.
(§1) The whole spleen was surgically removed from a mouse and mechanically dissociated into a single cell suspension of splenocytes, which were then cultured in the complete RPMI 1640 medium (cRPMI). Human peripheral blood mononuclear cells (PBMCs) from healthy volunteers were collected from whole blood through gradient-centrifugation with Histopaque-1077 (Sigma-Aldrich).
Splenocytes were treated concurrently with the compounds of the invention and LPS to assess the suppressive function of compounds on LPS-induced inflammation.

[4] = test system: ERK and p38 of the MAPK family, JNK and STAT3; assay: Signal transduction by multiplex bead array (phosphorylation versus LPS treatment alone); type: cell-based; settings: compared to LPS treatment alone, 30 min post-treatment, FIG. 4
Source text: FIG. 4. […] Compounds 4 and 14, the representative compounds of the invention, were examined in term of signal transduction to explore how the new compounds exert their suppressive effect, using the multiplex bead array.
Using the multiplex bead array, we examined how the new compounds might exert their suppressive effect in term of signal transduction.

[5] = test system: OVA-induced AHR mouse model; assay: OVA-induced airway hyperreactivity (AHR) and airway inflammation mouse model; type: in vivo; settings: for suppression of OVA-induced airway hyperreactivity (AHR): OVA-induced AHR mouse model, FIG. 7; for suppression of IL-4 mRNA level in lungs / suppression of IL-13 mRNA level in lungs: lung mRNA, FIG. 10
Procedure: For ovalbumin (OVA) challenge, mice were sensitized intraperitoneally (i.p.) with 50 μg of OVA with 2% alhydrogel adjuvant (InvivoGen). Mice were challenged three times with 50 μg of OVA on day 7 post-sensitization, either daily or every other day. Mice were sacrificed the day after the last OVA challenge.
Mice were anesthetized with 100 mg per kg body weight pentobarbital (Sigma-Aldrich), tracheotomised and mechanically ventilated via the FinePointe RC system (Buxco Research Systems, Wilmington, NC). Lung function was assessed by measuring lung resistance and dynamic compliance in response to increasing doses of aerosolized methacholine (1.25-40 mg/mL, Sigma-Aldrich).
Upon exposure of the trachea, the lungs were lavaged twice with 1 mL of PBS supplemented with 2% fetal calf serum (FCS). BALF was pooled and BAL cells were pelleted by centrifugation and fixed onto cytospin slides. The slides were stained with Diff-Quik solution (Polysciences Inc) and BAL differential cell count was performed.
Using the Th2 OVA-induced AHR mouse model, we assessed the capability of selected compounds 14 and 29 in suppressing Th2 inflammation.

[6] = test system: B6 mice; assay: Suppression of LPS-induced inflammation in vivo; settings: injected twice in a half hour time after LPS-treatment, FIG. 3
Procedure: FIG. 3. […] The in vivo capability of compound 29 in suppressing LPS-induced inflammation in B6 mice was assessed as indicated in the scheme.
To determine the anti-inflammatory function in vivo, we assessed the capability of compound 29 in suppressing LPS-induced inflammation in B6 mice.

[7] = test system: Splenocytes; assay: Immune-stimulating function of compounds alone (splenocytes in vitro); type: cell-based, mouse; settings: splenocytes treated with compound alone, FIG. 6
Procedure: FIG. 6. […] Splenocytes were treated with the compounds of the invention alone to assess the immune-stimulating function of the compounds.
as §1
Splenocytes were treated with the compounds of the invention alone to assess the immune-stimulating function of the compounds by measuring their ability to promote the secretions of IFN-γ and IL-4.

[8] = test system: B6 mice; assay: Adjuvancy function of compounds in vivo (serum IFNγ and IL-4); settings: FIG. 11
Procedure: FIG. 11. […] The adjuvancy capability of the selected compound 29 in vivo was assessed by measuring the serum level of IFNγ and IL-4 induced after injecting them into B6 mice.
Besides assessing the ability of the new compounds to suppress inflammation, we also looked into their function to act as adjuvants, i.e. their ability to promote desirable immunological trends in the development of vaccines. We measured the in vivo adjuvancy capability of selected compounds 29 in inducing IFNγ and IL-4 in B6 mice (FIG. 11).

[9] = bronchoalveolar lavage fluid, FIG. 8

SMILES: CCOP(=O)(N[C@@H]1C(O)[C@@H](O)[C@H](O)C2COC(=O)N21)OCC (stereo partly shown) [Compound 2]
- free polysubstituted 2-oxa-3-oxoindolizidine from hydrolysis of the glycolipid mimetic (stability to glycosidases) [1]: No traces

SMILES: CCCCCCCCOP(=O)(N[C@@H]1C(O)[C@@H](O)[C@H](O)C2COC(=O)N21)OCCCCCCCC (stereo partly shown) [Compound 4]
- suppression of LPS-induced inflammation in BMDM [2]: efficient in suppressing LPS-induced inflammation
- suppression of IL-6 [2]: significant suppression
- suppression of TNFα [2]: significant suppression
- free polysubstituted 2-oxa-3-oxoindolizidine from hydrolysis of the glycolipid mimetic (stability to glycosidases) [1]: No traces
- suppression of LPS-induced inflammation [3]: prominent inflammation-suppressing function
- phosphorylation of ERK [4]: significantly reduced
- phosphorylation of JNK [4]: but not JNK
- phosphorylation of p38 [4]: significantly reduced

SMILES: CCCCCCCCCCCCOP(=O)(N[C@@H]1C(O)[C@@H](O)[C@H](O)C2COC(=O)N21)OCCCCCCCCCCCC (stereo partly shown) [Compound 6]
- free polysubstituted 2-oxa-3-oxoindolizidine from hydrolysis of the glycolipid mimetic (stability to glycosidases) [1]: No traces
- suppression of LPS-induced inflammation [3]: prominent inflammation-suppressing function

SMILES: CCCCNS(=O)(=O)N[C@@H]1C(O)[C@@H](O)[C@H](O)C2COC(=O)N21 (stereo partly shown) [Compound 8]
- free polysubstituted 2-oxa-3-oxoindolizidine from hydrolysis of the glycolipid mimetic (stability to glycosidases) [1]: No traces

SMILES: CCCCCCCCNS(=O)(=O)N[C@@H]1C(O)[C@@H](O)[C@H](O)C2COC(=O)N21 (stereo partly shown) [Compound 10]
- free polysubstituted 2-oxa-3-oxoindolizidine from hydrolysis of the glycolipid mimetic (stability to glycosidases) [1]: No traces

SMILES: CCCCCCCCCCCCNS(=O)(=O)N[C@@H]1C(O)[C@@H](O)[C@H](O)C2COC(=O)N21 (stereo partly shown) [Compound 12]
- free polysubstituted 2-oxa-3-oxoindolizidine from hydrolysis of the glycolipid mimetic (stability to glycosidases) [1]: No traces

SMILES: CCCCCCCCCCCCCCCCNS(=O)(=O)N[C@@H]1C(O)[C@@H](O)[C@H](O)C2COC(=O)N21 (stereo partly shown) [Compound 14]
- suppression of LPS-induced inflammation in BMDM [2]: efficient in suppressing LPS-induced inflammation
- suppression of IL-6 [2]: significant suppression
- suppression of TNFα [2]: significant suppression
- suppression of OVA-induced airway hyperreactivity (AHR) [5]: can suppress AHR onset
- suppression of IL-4 mRNA level in lungs [5]: significantly suppressed
- suppression of IL-13 mRNA level in lungs [5]: significantly suppressed
- free polysubstituted 2-oxa-3-oxoindolizidine from hydrolysis of the glycolipid mimetic (stability to glycosidases) [1]: No traces
- suppression of LPS-induced inflammation [3]: prominent inflammation-suppressing function
- phosphorylation of ERK [4]: significantly reduced
- phosphorylation of JNK [4]: but not JNK
- phosphorylation of STAT3 [4]: significant reduction
- phosphorylation of p38 [4]: significantly reduced

SMILES: CCCCCCCCOS(=O)(=O)N[C@@H]1C(O)[C@@H](O)[C@H](O)C2COC(=O)N21 (stereo partly shown) [Compound 16]
- free polysubstituted 2-oxa-3-oxoindolizidine from hydrolysis of the glycolipid mimetic (stability to glycosidases) [1]: No traces

SMILES: CCCCCCCCCCCCOS(=O)(=O)N[C@@H]1C(O)[C@@H](O)[C@H](O)C2COC(=O)N21 (stereo partly shown) [Compound 18]
- free polysubstituted 2-oxa-3-oxoindolizidine from hydrolysis of the glycolipid mimetic (stability to glycosidases) [1]: No traces

SMILES: CCCCCCCCCCCCCCCCOS(=O)(=O)N[C@@H]1C(O)[C@@H](O)[C@H](O)C2COC(=O)N21 (stereo partly shown) [Compound 20]
- free polysubstituted 2-oxa-3-oxoindolizidine from hydrolysis of the glycolipid mimetic (stability to glycosidases) [1]: No traces

SMILES: CCCCCCCCS(=O)(=O)N[C@@H]1C(O)[C@@H](O)[C@H](O)C2COC(=O)N21 (stereo partly shown) [Compound 22]
- free polysubstituted 2-oxa-3-oxoindolizidine from hydrolysis of the glycolipid mimetic (stability to glycosidases) [1]: No traces

SMILES: CCCCCCCCNC(=[Se])N[C@@H]1C(O)[C@@H](O)[C@H](O)C2COC(=O)N21 (stereo partly shown) [Compound 25]
- free polysubstituted 2-oxa-3-oxoindolizidine from hydrolysis of the glycolipid mimetic (stability to glycosidases) [1]: No traces

SMILES: CCCCCCCCCCCCNC(=S)N[C@@H]1C(O)[C@@H](O)[C@H](O)C2COC(=O)N21 (stereo partly shown) [Compound 27]
- free polysubstituted 2-oxa-3-oxoindolizidine from hydrolysis of the glycolipid mimetic (stability to glycosidases) [1]: No traces
- suppression of LPS-induced inflammation [3]: prominent inflammation-suppressing function

SMILES: CCCCCCCCCCCCNC(=[Se])N[C@@H]1C(O)[C@@H](O)[C@H](O)C2COC(=O)N21 (stereo partly shown) [Compound 29]
- suppression of LPS-induced serum TNFα [6]: significantly suppressed; also recorded: significantly suppressing
- suppression of OVA-induced airway hyperreactivity (AHR) [5]: suppress AHR significantly
- suppression of IL-4 level in BALF [5, 9]: suppress both IL-13 and IL-4 levels significantly
- suppression of IL-13 level in BALF [5, 9]: suppress both IL-13 and IL-4 levels significantly
- suppression of IL-4 mRNA level in lungs [5]: significantly suppressed
- suppression of IL-13 mRNA level in lungs [5]: significantly suppress; also recorded: significantly suppressed
- suppression of IL-13 protein level in lungs ([5]; lung protein, FIG. 9): significantly suppress; also recorded: significant suppression
- IFNγ secretion [7]: effective in promoting; also recorded: induced significant IFNγ secretion
- IL-4 secretion [7]: but not IL-4
- free polysubstituted 2-oxa-3-oxoindolizidine from hydrolysis of the glycolipid mimetic (stability to glycosidases) [1]: No traces
- induction of serum IFNγ ([8]; 2 hours after injection): significant capability
- induction of serum IL-4 ([8]; 2 hours after injection): significant capability
- serum IFNγ level ([8]; 18 hours after injection): significant detectable level
- suppression of LPS-induced inflammation [3]: prominent inflammation-suppressing function

SMILES: CCCCCCCCCCCCCCCCNC(=[Se])N[C@@H]1C(O)[C@@H](O)[C@H](O)C2COC(=O)N21 (stereo partly shown) [Compound 32]
- free polysubstituted 2-oxa-3-oxoindolizidine from hydrolysis of the glycolipid mimetic (stability to glycosidases) [1]: No traces

SMILES: CCCCCCCCCCCCOC(=S)N[C@@H]1C(O)[C@@H](O)[C@H](O)C2COC(=O)N21 (stereo partly shown) [Compound 34]
- free polysubstituted 2-oxa-3-oxoindolizidine from hydrolysis of the glycolipid mimetic (stability to glycosidases) [1]: No traces
